Here are results for 32 molecules from patent US20250136596A1, “MEMBRANE-ASSOCIATED TYROSINE- AND THREONINE-SPECIFIC CDC2-INHIBITORY KINASE (PKMYT1) INHIBITORS AND USES THEREOF” (Insilico Medicine IP Limited, priority 2022, published 2025).

The structures appear in SMILES notation.

The target in this assay is PKMYT1 (Homo sapiens (Human), UniProt Q99640). The experiment in a line: PKMYT1 HTRF Assay. Format: binding. As to conditions: Tracer 178, GST-Tb; compound 10 μM to 0.5 nM; read-out: MYT1 HTRF IC50. The procedure:
Example A: PKMYT1 HTRF Assay
Compound serial dilution is performed by Echo, and the final concentrations vary from 10 μM to 0.5 nM. This was filled by the addition of 5 μL/well of Enzyme solution to the assay plate containing the compound. The plate was centrifuged at 1000 rpm for 1 minute, and incubate 15 minutes at 25 ? . Then 5 μL/well of tracer solution (Tracer 178) was added to initiate the reaction, and incubate for 60 minutes at 25° C. Next 5 μL GST-Tb was added into the assay plate, the plate was centrifuged at 1000 rpm for 1 minute, and incubate for 15 minutes at 25 ? . The assay plate was read on Envision.

PKMYT1, sequence (Q99640 whole entry): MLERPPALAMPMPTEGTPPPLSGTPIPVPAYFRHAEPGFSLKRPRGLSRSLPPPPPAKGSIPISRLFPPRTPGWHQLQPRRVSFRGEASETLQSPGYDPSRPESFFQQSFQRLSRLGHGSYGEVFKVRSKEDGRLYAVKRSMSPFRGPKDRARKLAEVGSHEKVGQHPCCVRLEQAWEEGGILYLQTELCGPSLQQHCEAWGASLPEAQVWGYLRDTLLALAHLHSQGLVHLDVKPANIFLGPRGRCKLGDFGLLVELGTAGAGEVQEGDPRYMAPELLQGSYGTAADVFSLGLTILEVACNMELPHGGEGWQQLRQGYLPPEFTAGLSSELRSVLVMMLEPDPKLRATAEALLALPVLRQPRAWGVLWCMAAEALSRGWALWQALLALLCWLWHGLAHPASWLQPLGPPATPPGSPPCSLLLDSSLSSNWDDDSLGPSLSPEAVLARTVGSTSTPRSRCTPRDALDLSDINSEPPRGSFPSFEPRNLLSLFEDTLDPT

As to `Cc1ccc(O)c(C)c1-c1cnc2[nH]c(-c3cnc(N4CCOC4=O)nc3)c(Cl)c2c1C#N` [Example 82, (R)-3-chloro-5-(3-hydroxy-2,6-dimethylphenyl)-2-(2-(2-oxooxazolidin-3-yl)pyrimidin-5-yl)-1H-pyrrolo[2,3-b]pyridine-4-carbonitrile], the IC50 was less than 10 nM.

Regarding `Cc1ccc(O)c(C)c1-c1cnc2[nH]c(-c3ccn(C)c(=O)c3)cc2c1` [Example 9, 4-(5-(3-hydroxy-2,6-dimethylphenyl)-1H-pyrrolo[2,3-b]pyridin-2-yl)-1-methylpyridin-2 (1H)-one], the IC50 lay within 10 to 50 nM.

Regarding `Cc1ccc(O)c(C)c1-c1cnc2[nH]c(-c3ccc4scnc4c3)cc2c1` [Example 22, 3-(2-(benzo[d]thiazol-5-yl)-1H-pyrrolo[2,3-b]pyridin-5-yl)-2,4-dimethylphenol], the IC50 lay within 50 to 500 nM. As for `Cc1ccc(O)c(C)c1-c1cnc2[nH]c(-c3ccc(N4CCN(C)CC4)nc3)c(C)c2c1` [Example 3, 2,4-dimethyl-3-(3-methyl-2-(6-(4-methylpiperazin-1-yl)pyridin-3-yl)-1H-pyrrolo[2,3-b]pyridin-5-yl)phenol], the IC50 is 50 to 500 nM. As for `Cc1ncc(-c2cc3cc(-c4c(C)ccc(O)c4C)cnc3[nH]2)cn1` [Example 7, 2,4-dimethyl-3-(2-(2-methylpyrimidin-5-yl)-1H-pyrrolo[2,3-b]pyridin-5-yl)phenol], the figure is 10 to 50 nM; as for `Cc1ccc(O)c(C)c1-c1cnc2[nH]c(-c3cnc(N4C[C@@H]5C[C@H]4CO5)nc3)cc2n1` [Example 128, 3-(6-(2-((1S,4S)-2-oxa-5-azabicyclo[2.2.1]heptan-5-yl)pyrimidin-5-yl)-5H-pyrrolo[2,3-b]pyrazin-2-yl)-2,4-dimethylphenol], less than 10 nM. As for `CCc1c(O)ccc(C)c1-c1cnc2[nH]c(-c3cnc(C)nc3)cc2c1C#N` [Example 90, 5-(2-ethyl-3-hydroxy-6-methylphenyl)-2-(2-methylpyrimidin-5-yl)-1H-pyrrolo[2,3-b]pyridine-4-carbonitrile], the figure is 50 to 500 nM.

In the case of `Cc1ccc(O)c(C)c1-c1cnc2[nH]c(-c3cn[nH]c(=O)c3)cc2c1C#N` [Example 134], the IC50 is less than 10 nM. With `Cc1ccc(O)c(C)c1-c1cnc2[nH]c(-c3cnc(N(C)C)nc3)c(Cl)c2c1C#N` [Example 50, (S)-3-chloro-2-(2-(dimethylamino)pyrimidin-5-yl)-5-(3-hydroxy-2,6-dimethylphenyl)-1H-pyrrolo[2,3-b]pyridine-4-carbonitrile], the IC50 is less than 10 nM.

As for `Cc1ncc(-c2cc3nc(-c4c(C)ccc(O)c4C)cnc3[nH]2)s1` [Example 19, 2,4-dimethyl-3-(6-(2-methylthiazol-5-y1)-5H-pyrrolo[2,3-b]pyrazin-2-yl)phenol], the IC50 was 10 to 50 nM. As to `Cc1ccc(O)c(C)c1-c1cnc2[nH]c(-c3cnc(N4CCC4)nc3)cc2c1C#N` [Example 49, (R)-2-(2-(azetidin-1-yl)pyrimidin-5-y1)-5-(3-hydroxy-2,6-dimethylphenyl)-1H-pyrrolo[2,3-b]pyridine-4-carbonitrile], the concentration for half-maximal inhibition (IC50) is less than 10 nM. As for `Cc1ccc(O)c(C)c1-c1cnc2[nH]c(-c3cnc(N)s3)cc2c1C#N` [Example 126, (S)-2-(2-aminothiazol-5-yl)-5-(3-hydroxy-2,6-dimethylphenyl)-1H-pyrrolo[2,3-b]pyridine-4-carbonitrile], the figure is less than 10 nM; as for `Cc1ccc(O)c(C)c1-c1cnc2[nH]c(-c3cnc(N4CC(C(=O)O)C4)nc3)cc2c1C#N` [Example 69, (R)-1-(5-(4-cyano-5-(3-hydroxy-2,6-dimethylphenyl)-1H-pyrrolo[2,3-b]pyridin-2-yl)pyrimidin-2-yl)azetidine-3-carboxylic acid], less than 10 nM; as for `Cc1ccc(O)c(C)c1-c1cnc2[nH]c(-c3cnc(N4CCCC4CO)nc3)c(Cl)c2c1C#N` (centres unmarked) [Example 74, 3-chloro-5-(3-hydroxy-2,6-dimethylphenyl)-2-(2-(2-(hydroxymethyl)pyrrolidin-1-yl)pyrimidin-5-yl)-1H-pyrrolo[2,3-b]pyridine-4-carbonitrile], less than 10 nM. Under `Cc1ccc(O)c(C)c1-c1cnc2[nH]c(-c3cnc(C(C)(C)O)nc3)cc2c1` [Example 88, 3-(2-(2-(2-hydroxypropan-2-yl)pyrimidin-5-yl)-1H-pyrrolo[2,3-b]pyridin-5-yl)-2,4-dimethylphenol] stands 10 to 50 nM; under `Cc1ccc(O)c(C)c1-c1cnc2[nH]c(-c3cnc(N4CCC(F)(F)C4)nc3)cc2c1C#N` [Example 37, 2-(2-(3,3-difluoropyrrolidin-1-yl)pyrimidin-5-yl)-5-(3-hydroxy-2,6-dimethylphenyl)-1H-pyrrolo[2,3-b]pyridine-4-carbonitrile], less than 10 nM. As for `Cc1ccc(O)c(C)c1-c1cnc2[nH]c(-c3cnc(NCCO)nc3)cc2c1C#N` [Example 101, (R)-5-(3-hydroxy-2,6-dimethylphenyl)-2-(2-((2-hydroxyethyl)amino)pyrimidin-5-yl)-1H-pyrrolo[2,3-b]pyridine-4-carbonitrile], the figure is less than 10 nM; as for `Cc1ncc(-c2[nH]c3ncc(-c4c(C)ccc(O)c4C)c(C#N)c3c2C#CC2(O)COC2)cn1` [Example 111, (S)-5-(3-hydroxy-2,6-dimethylphenyl)-3-((3-hydroxyoxetan-3-yl)ethynyl)-2-(2-methylpyrimidin-5-yl)-1H-pyrrolo[2,3-b]pyridine-4-carbonitrile], less than 10 nM; as for `C#Cc1c(-c2cnc(C)nc2)[nH]c2ncc(-c3c(C)ccc(O)c3C)c(C#N)c12` [Example 109, (S)-3-ethynyl-5-(3-hydroxy-2,6-dimethylphenyl)-2-(2-methylpyrimidin-5-yl)-1H-pyrrolo[2,3-b]pyridine-4-carbonitrile], less than 10 nM. For `Cc1ccc(-c2cc3nc(-c4c(C)ccc(O)c4C)cnc3[nH]2)cn1` [Example 11, 2,4-dimethyl-3-(6-(6-methylpyridin-3-yl)-5H-pyrrolo[2,3-b]pyrazin-2-yl)phenol], the IC50 was less than 10 nM.

`Cc1ccc(O)c(C)c1-c1cnc2[nH]c(-c3cncnc3)cc2c1C#N` [Example 80, (R)-5-(3-hydroxy-2,6-dimethylphenyl)-2-(pyrimidin-5-yl)-1H-pyrrolo[2,3-b]pyridine-4-carbonitrile]: the IC50 is less than 10 nM.

`Cc1ccc(O)c(C)c1-c1cnc2[nH]c(-c3cnc(N4CC(C(N)=O)C4)nc3)cc2c1C#N` [Example 71, (R)-1-(5-(4-cyano-5-(3-hydroxy-2,6-dimethylphenyl)-1H-pyrrolo[2,3-b]pyridin-2-yl)pyrimidin-2-yl)azetidine-3-carboxamide]: the IC50 was less than 10 nM. As for `Cc1ccc(O)c(C)c1-c1cnc2[nH]c(-c3cncc(N4CCC(O)CC4)c3)cc2c1C#N` [Example 89, 5-(3-hydroxy-2,6-dimethylphenyl)-2-(5-(4-hydroxypiperidin-1-yl)pyridin-3-yl)-1H-pyrrolo[2,3-b]pyridine-4-carbonitrile], the IC50 was less than 10 nM. As to `Cc1ccc(O)c(C)c1-c1cnc2[nH]c(-c3cc[nH]n3)cc2c1C#N` [Example 120, (S)-5-(3-hydroxy-2,6-dimethylphenyl)-2-(1H-pyrazol-3-yl)-1H-pyrrolo[2,3-b]pyridine-4-carbonitrile], the IC50 was less than 10 nM. As for `Cc1ncc(-c2cc3c(C#N)c(-c4c(C)ccc(O)c4C)cnc3[nH]2)c(C)n1` (atropisomer, axis not shown) [Example 77, (R)-2-(2,4-dimethylpyrimidin-5-yl)-5-(3-hydroxy-2,6-dimethylphenyl)-1H-pyrrolo[2,3-b]pyridine-4-carbonitrile], the figure is 10 to 50 nM. Take `Cc1ccc(O)c(C)c1-c1cnc2[nH]c(-c3cnc4[nH]cnc4c3)cc2c1C#N` [Example 63, (R)-5-(3-hydroxy-2,6-dimethylphenyl)-2-(3H-imidazo[4,5-b]pyridin-6-y1)-1H-pyrrolo[2,3-b]pyridine-4-carbonitrile]: the 50% inhibitory concentration (IC50) was less than 10 nM.

As for `Cc1ccc(O)c(C)c1-c1cnc2[nH]c(-c3ccc(N4CCN(C)CC4)nc3C)nc2c1` [Example 1, 2,4-dimethyl-3-(2-(2-methyl-6-(4-methylpiperazin-1-yl)pyridin-3-yl)-3H-imidazo[4,5-b]pyridin-6-yl)phenol], the IC50 is 50 to 500 nM. As for `Cc1ncc(-c2[nH]c3ncc(-c4c(C)ccc(O)c4C)c(Cl)c3c2F)cn1` [Example 24, (S)-3-(4-chloro-3-fluoro-2-(2-methylpyrimidin-5-yl)-1H-pyrrolo[2,3-b]pyridin-5-yl)-2,4-dimethylphenol], the figure is less than 10 nM; as for `Cc1ncc(-c2[nH]c3ncc(-c4c(C)ccc(O)c4C)c(C#N)c3c2C2CC2)cn1` [Example 108, 3-cyclopropyl-5-(3-hydroxy-2,6-dimethylphenyl)-2-(2-methylpyrimidin-5-yl)-1H-pyrrolo[2,3-b]pyridine-4-carbonitrile], 10 to 50 nM. For `Cc1ccc(O)c(C)c1-c1cnc2[nH]c(-c3cnc(C4CC4)nc3)c(Cl)c2c1C#N` [Example 57, (S)-3-chloro-2-(2-cyclopropylpyrimidin-5-yl)-5-(3-hydroxy-2,6-dimethylphenyl)-1H-pyrrolo[2,3-b]pyridine-4-carbonitrile], the IC50 is less than 10 nM. As for `Cc1ccc(-c2cc3cc(-c4c(C)ccc(O)c4C)cnc3[nH]2)cn1` [Example 5, 2,4-dimethyl-3-(2-(6-methylpyridin-3-yl)-1H-pyrrolo[2,3-b]pyridin-5-yl)phenol], the figure is 10 to 50 nM; as for `Cc1ccc(O)c(C)c1-c1cnc2[nH]c(-c3cnn(C4CCOCC4)c(=O)c3)c(Cl)c2c1C#N` [Example 68, (R)-3-chloro-5-(3-hydroxy-2,6-dimethylphenyl)-2-(6-oxo-1-(tetrahydro-2H-pyran-4-yl)-1,6-dihydropyridazin-4-yl)-1H-pyrrolo[2,3-b]pyridine-4-carbonitrile], less than 10 nM.
